From patent US10111854B2, “Synthesis and use of amine-containing flavonoids as potent anti-leishmanial agents” (The Hong Kong Polytechnic University, priority 2014, dated 2018) come the findings set out here.

In data set [1] the test system is L. amazonensis LV78 promastigotes. As to the kind of experiment: Anti-promastigote activity (MTS assay), L. amazonensis LV78. Particulars: Leishmania amazonensis, 72 hours. It is filed as cell-based. The method, then: (§1) Promastigotes of visceral L. donovani Ld39 and LdHU3, and cutaneous L. amazonensis LV78, L. braziliensis UA847 and L. major FV1 were employed in the study. All strains were cultured in Schneider's Drosophila Medium (Invitrogen), pH 6.9 supplemented with 10% (v/v) heat inactivated fetal bovine serum (Hyclone) with 4 mM glutamine (Sigma) and 25 μg/mL gentamicin solution (Invitrogen) at 27° C. for 4 days. RAW264.7 cells were cultured in supplemented DMEM media with 10% heat inactivated FBS and 100 U/mL penicillin and 100 μg/mL of streptomycin. They were maintained at 37° C. in a humidified atmosphere with 5% CO2. The cells were split constantly after a confluent monolayer has been formed. The cells were harvested by a cell scraper.
(§2) Anti-promastigote activity was determined according to previous procedures (1) by Cell Titer 96® Aqueous Assay (Promega) that employed a tetrazolium compound. Promastigotes were seeded into 96-well flat bottom microtiter plate at 1×10^5 cells per well in a final volume of 100 μL medium and incubated with a series of concentrations of synthetic FM. Parasites were incubated at 27° C. for 72 hours. After 72 hours of incubation, 10 μL of MTS:PMS mixture [MTS:2-(4,5-Dimethylthiazol-2-yl-)-5-[3-(carboxymethoxy)phenyl]-2-(4-sulfophenyl)-2H-tetrazolium); PMS: phenazine methosulfate both purchased from Sigma] was added into each well of microtiter plate. The plate was then incubated at 27° C. for 4 hours for color development. After 4 hours of incubation, the OD values were determined at 490 nm using automatic microtiter plate reader (Bio-Rad).
(§3) IC50 values of known antileishmanials and the amine-containing flavonoid monomers of the present invention to promastigotes (L. amazonensis LV78, L major FV1, L. donovani HU3, L. donovani 39), macrophages (Raw 264.7 and PEM) and mouse fibroblast (L929) were determined. The anti-promastigotes activities and cytotoxicity of the amine-containing flavonoid monomers of the invention are shown in Table 1.

Data set [2] deals with L. major FV1 promastigotes. As to the kind of experiment: Anti-promastigote activity (MTS assay), L. major FV1. To be noted: Leishmania major, 72 hours. The format is cell-based. The method, then: as §1, §2, §3
The test system of data set [3] is L. donovani HU3 promastigotes. Put plainly: Anti-promastigote activity (MTS assay), L. donovani HU3. The format is cell-based. Particulars: Leishmania donovani, 72 hours. The method, then: as §1, §2, §3
Data set [4] concerns L. donovani Ld39 promastigotes. As to the kind of experiment: Anti-promastigote activity (MTS assay), L. donovani Ld39. The format is cell-based. Particulars: Leishmania donovani, 72 hours. The method, then: as §1, §2, §3
A short description of data set [5]: Cytotoxicity, L929 fibroblasts. The format is cell-based, mouse. To be noted: mouse. As for the experimental part: as §3
Data set [6] in a line: Cytotoxicity, peritoneal elicited macrophages (PEM). The format is cell-based, mouse. Particulars: mouse, Cytotoxicity IC50, PEM. As for the experimental part:
(§4) Mouse peritoneal elicited macrophages (PEM) were obtained as previously described (2). A round cover slip (12 mm in diameter) was placed into each well of 24-well culture plate. Mouse PEM were resuspended in supplemented DMEM media containing 10% heat inactivated FBS (v/v), 100 U/mL penicillin and 100 μg/mL streptomycin and seeded into each well at a cell density of 1×10^5 cells per 500 μL. Macrophages were allowed to attach overnight. Non-adherent cells were removed by gentle washing with un-supplemented DMEM media twice. Adherent macrophages were infected with late-log promastigotes at a parasite-to-macrophage ratio of 20:1 overnight at 37° C. with 5% CO2. Non-internalized promastigotes were removed by washing twice with un-supplemented DMEM media. Infected macrophages were further incubated in 500 μL of supplemented DMEM media in the presence or absence of FM for 72 hours at 37° C. After incubation, cover slips were stained with Giemsa and the percentage of macrophages infected and number of amastigotes per 100 macrophages was enumerated.
as §3

For data set [7], the system named is L. amazonensis LV78 amastigotes. As to the kind of experiment: Anti-amastigote activity in infected PEM, L. amazonensis LV78. It is filed as cell-based. To be noted: for IC50: Leishmania amazonensis, 72 h, infected PEM, 3 days, Giemsa; for Selective index (a)/(b): IC50 RAW264.7 over IC50 L. amazonensis LV78 amastigotes. As for the experimental part: as §4
(§5) PEM cells were infected with late-log promastigotes (L. amazonensis LV78, L. braziliensis UA847, L. donovani HU3, L. donovani 39) for 24 hr at 37° C. Infected macrophages were then treated with various antileishmanials and incubated for 3 days at 37° C. After 3 days, the cover slips were stained with Giemsa. The number of amastigotes per 100 macrophages were determined and used to calculate IC50 values.

For data set [8], the system named is L. donovani HU3 amastigotes. Put plainly: Anti-amastigote activity in infected PEM, L. donovani HU3. The format is cell-based. Particulars: for IC50: Leishmania donovani, 72 h, infected PEM, 3 days, Giemsa, SSG-sensitive. As for the experimental part:
as §4, §5

In data set [9] the test system is L. donovani Ld39 amastigotes (SSG-resistant). As to the kind of experiment: Anti-amastigote activity in infected PEM, L. donovani Ld39. It is filed as cell-based. To be noted: for IC50: Leishmania donovani, 72 h, infected PEM, 3 days, Giemsa, SSG-resistant; for Selective index (a)/(c): IC50 RAW264.7 over IC50 L. donovani Ld39 amastigotes. As for the experimental part:
as §4, §5

Data set [10] has as its system promastigotes (L. amazonensis LV78, L major FV1, L. donovani HU3, L. donovani 39). As to the kind of experiment: Anti-promastigote activity, strain not given. It is filed as cell-based. Particulars: Leishmania amazonensis; strain not specified; read-out: IC50 against promastigotes. The method, then:
as §2, §3

The subject of data set [11] is amastigotes (L. amazonensis LV78, L. braziliensis UA847, L. donovani HU3, L. donovani 39). Put plainly: Anti-amastigote activity, strain not given. To be noted: strain not specified; visceral and cutaneous Leishmania; read-out: IC50 against amastigotes. The format is cell-based. The method, then: as §4, §5

Regarding `CN(CCOc1ccc(-c2cc(=O)c3ccccc3o2)cc1)CCN(C)Cc1ccncc1` [FM02, 2-(4-(2-(methyl(2-(methyl(pyridin-4-ylmethyl)amino)ethyl)amino)ethoxy)phenyl)-4H-chromen-4-one], the IC50 came to 4.6 ± 0.6 µM in [1]; 5.4 ± 1 µM in [2]; 1.8 ± 0.3 µM in data set [3]; 2.1 ± 0.6 µM in data set [4]; 22.1 ± 4 µM in [5]; 22 µM in [6]. Further, the IC50 in data set [7] is 4.7 ± 1 µM; in data set [8], above 10 µM; in [9], 9.6 µM; in data set [10], below 5 µM; in data set [11], below 5 µM.
Consider `CN(C)CCOCCOc1ccc(-c2cc(=O)c3ccccc3o2)cc1` [FM06, 2-(4-(2-(2-(dimethylamino)ethoxy)ethoxy)phenyl)-4H-chromen-4-one], for which the IC50 in data set [1] is 2 ± 0.3 µM; in [2] it was 3.6 ± 0.7 µM; in data set [3] it was 2.2 ± 0.5 µM; in data set [4], 1.1 ± 0.1 µM; in data set [5] it was above 33 µM; in data set [7] it was 4.5 ± 1.8 µM. The IC50 in [8] was above 10 µM; in data set [9], above 10 µM; in [10], below 5 µM; in data set [11], below 5 µM.
As to `O=c1cc(-c2ccc(OCCOCCNCc3ccncc3)cc2)oc2ccccc12` [FM08, 2-(4-(2-(2-((pyridin-4-ylmethyl)amino)ethoxy)ethoxy)phenyl)-4H-chromen-4-one], the IC50 in data set [1] is 8.3 ± 1.9 µM; in data set [2], 9.5 ± 1.2 µM; in data set [3] it was 1.4 ± 0.4 µM; in data set [4], 2.7 ± 0.9 µM; in data set [5], above 33 µM; in data set [7], 6.7 ± 1.8 µM. Moreover, the values for the IC50 in data set [8], in data set [9] and in data set [10] were above 10 µM, above 10 µM and below 5 µM, respectively.
`O=c1cc(-c2ccc(OCC3CCN(Cc4ccncc4)CC3)cc2)oc2ccccc12` [FM13, 2-(4-((1-(pyridin-4-ylmethyl)piperidin-4-yl)methoxy)phenyl)-4H-chromen-4-one]: the IC50 was 3.5 ± 1.1 µM in data set [1]; 5.7 ± 3.1 µM in data set [2]; 1.1 ± 0.6 µM in data set [3]; 0.7 ± 0.2 µM in data set [4]; above 100 µM in [5]; 2.5 ± 0.5 µM in [7]. Also, the IC50 in data set [8] is above 10 µM; in data set [9] it was 3.3 µM; in [10], below 5 µM; in [11], below 5 µM. Also, the “Selective index (a)/(b)” value was above 40 in data set [7] and above 10 in data set [8] (IC50 RAW264.7 over IC50 L. donovani HU3 amastigotes). Besides, the “Selective index (a)/(c)” value in data set [9] is above 33.
For `O=c1cc(-c2ccc(OCCN3CCCN(Cc4ccncc4)CC3)cc2)oc2ccccc12` [FM14, 2-(4-(2-(4-(pyridin-4-ylmethyl)-1,4-diazepan-1-yl)ethoxy)phenyl)-4H-chromen-4-one], the IC50 in data set [1] worked out at 1.4 ± 0.3 µM; in [2], 1.6 ± 0.6 µM; in [3] it was 0.3 ± 0.1 µM; in data set [4], 1.4 ± 0.9 µM; in data set [5], 10.6 µM; in data set [7], 1.9 ± 0.5 µM. For the same molecule, the IC50 is above 7 µM in data set [8], 8.4 µM in data set [9], below 5 µM in data set [10] and below 5 µM in [11]. Besides, the “Selective index (a)/(b)” value in [7] amounted to 11.4.
As to `O=C(COc1ccc(-c2cc(=O)c3ccccc3o2)cc1)N1CCCN(Cc2ccncc2)CC1` [FM15, 2-(4-(2-oxo-2-(4-(pyridin-4-ylmethyl)-1,4-diazepan-1-yl)ethoxy)phenyl)-4H-chromen-4-one], the IC50 in data set [1] is 4.8 ± 1.3 µM; in data set [2], 6.4 ± 1.7 µM; in data set [3], 1.5 ± 0.3 µM; in data set [4] it was 1.8 ± 0.7 µM; in data set [5] it was 14.9 ± 2.6 µM; in [7], above 9 µM. Moreover, the IC50 is above 10 µM in data set [8], 3.3 µM in data set [9], below 5 µM in data set [10] and below 5 µM in [11].
`O=c1cc(-c2ccc(OCCC3CCCCN3Cc3ccncc3)cc2)oc2ccccc12` (stereo not drawn) [FM17, 2-(4-(2-(1-(pyridin-4-ylmethyl)piperidin-2-yl)ethoxy)phenyl)-4H-chromen-4-one]: the IC50 in data set [1] was 0.9 ± 0.3 µM; in data set [2], 2.1 ± 0.5 µM; in data set [3], 0.4 ± 0.1 µM; in [4], 1.5 ± 0.5 µM; in data set [5], above 100 µM; in data set [7], 3.4 ± 0.9 µM. The IC50 is above 10 µM in data set [8], above 10 µM in data set [9], below 5 µM in [10] and below 5 µM in data set [11]. In [7], the “Selective index (a)/(b)” value is reported as above 29.4.
For the molecule `O=c1cc(-c2ccc(OC[C@@H]3CCCN3Cc3ccncc3)cc2)oc2ccccc12` [FM18, (S)-2-(4-((1-(pyridin-4-ylmethyl)pyrrolidin-2-yl)methoxy)phenyl)-4H-chromen-4-one], the IC50 came out at 5.5 ± 1 µM in data set [1]; 4.9 ± 0.4 µM in [2]; 1.9 ± 0.4 µM in data set [3]; 2.7 ± 0.9 µM in data set [4]; 39.1 ± 2.5 µM in data set [5]; 3.1 ± 0.1 µM in [7]. Further, the IC50 in data set [8] was above 9 µM; in [9], above 10 µM; in [10], below 5 µM; in data set [11] it was below 5 µM. In addition, in data set [7], the “Selective index (a)/(b)” value stood at 17.0.
Consider `NCCOCCOc1ccc(-c2cc(=O)c3ccccc3o2)cc1` [FM20, 2-(4-(2-(2-(amino)ethoxy)ethoxy)phenyl)-4H-chromen-4-one], for which the IC50 in data set [1] was 57.6 ± 37.3 µM; in [2] it was 59.8 ± 6.9 µM; in data set [4], 34.9 ± 14.1 µM; in data set [5], 41.5 ± 15.6 µM; in data set [6], 57.5 ± 9.2 µM; in [9], 0.7 ± 0.1 µM. Further, the “Selective index (a)/(c)” value in data set [9] was 22.6.
In the case of `O=c1cc(-c2ccc(OCCOCCN(CCOCCO)Cc3ccncc3)cc2)oc2ccccc12` [FM21, 2-(4-(2-(2-((2-(2-hydroxyethoxy)ethyl)(pyridin-4-ylmethyl)amino)ethoxy)ethoxy)phenyl)-4H-chromen-4-one], the IC50 was 47.8 ± 18.7 µM in data set [1]; 22.6 ± 10.9 µM in data set [2]; 3.4 ± 0.9 µM in data set [4]; 24 µM in data set [5]; 58.5 ± 4.3 µM in data set [6]; 4.5 µM in [7]. In data set [9], the IC50 came to 0.33 µM. For the same molecule, the “Selective index (a)/(b), (a) measured using PEM” value in data set [7] (IC50 PEM over IC50 L. amazonensis LV78 amastigotes) was determined as 13. Besides, the “Selective index (a)/(c), (a) measured using PEM” value in data set [9] (IC50 PEM over IC50 L. donovani Ld39 amastigotes) amounted to 177.
As to `NC[C@@H]1O[C@H](O[C@H]2[C@@H](O)[C@H](O[C@@H]3[C@@H](O)[C@H](N)C[C@H](N)[C@H]3O[C@H]3O[C@H](CO)[C@@H](O)[C@H](O)[C@H]3N)O[C@@H]2CO)[C@H](N)[C@@H](O)[C@@H]1O` [Paromomycin, reference compound], the IC50 was 24.5 ± 2.4 µM in data set [4], above 100 µM in data set [6] and 41 ± 1.1 µM in [9].
